Experimental data reported in patent US20230085307A1, “PYRIDAZINONE COMPOUND AND HERBICIDE” (NISSAN CHEMICAL CORPORATION, priority 2019, published 2023).

What was measured:
[1] = system: late watergrass; assay: Test Example 1: herbicidal activity, application before weed generation under submerged conditions (Table 16, symbol A); assay type: in vivo, late watergrass (Echinochloa oryzicola); settings: amount of applied herbicide 320 g/ha
In short: (§1)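 Alluvial soil was flooded to 4 cm depth, weed seeds were sown mixed and 2.5-leaf rice seedlings were transplanted. On sowing day, the compound's emulsion, diluted in water to a set dose, was applied to the water surface. Plants grew at 25–30 °C and were scored 0–5 after three weeks.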

[2] = system: Japanese bulrush; assay: Test Example 1: herbicidal activity, application before weed generation under submerged conditions (Table 16, symbol B); assay type: in vivo, Japanese bulrush (Schoenoplectus juncoides); settings: amount of applied herbicide 320 g/ha
In short: as §1

[3] = system: Japanese bulrush; assay: Test Example 2: herbicidal activity, application during weed generation under submerged conditions (Table 17, symbol B); assay type: in vivo, Japanese bulrush (Schoenoplectus juncoides); settings: AAH 320 g/ha; application during weed generation, submerged conditions
In short: (§2)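 Effect on each weed is rated three weeks post-treatment, using the same scoring criteria as the preceding test. Plants grow from mixed-sown seed in flooded alluvial soil (4 cm water) at 25° C. to 30° C., and are treated at one to two leaves with diluted emulsion dropped onto the water.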

[4] = system: oval-leafed pondweed; assay: Test Example 2: herbicidal activity, application during weed generation under submerged conditions (Table 17, symbol C); assay type: in vivo, oval-leafed pondweed (Monochoria vaginalis); settings: AAH 320 g/ha; application during weed generation, submerged conditions
In short: as §2

[5] = system: green foxtail; assay: Test Example 4: herbicidal effect by soil treatment (Table 19, symbol G); assay type: in vivo, green foxtail (Setaria viridis); settings: amount of applied herbicide 320 g/ha
In short: (§3)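 Soil-surface application: an emulsion agent diluted with water to the predetermined dose is sprayed uniformly over seeds lying under roughly 1.5 cm of sterilized diluvial soil. Boxes stay in a greenhouse at 25° C. to 30° C. Three weeks later, each species is graded on previously defined criteria.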

[6] = system: wild oat; assay: Test Example 4: herbicidal effect by soil treatment (Table 19, symbol I); assay type: in vivo, wild oat (Avena fatua); settings: amount of applied herbicide 320 g/ha
In short: as §3

[7] = system: blackgrass; assay: Test Example 4: herbicidal effect by soil treatment (Table 19, symbol J); assay type: in vivo, blackgrass (Alopecurus myosuroides); settings: amount of applied herbicide 320 g/ha
In short: as §3

[8] = system: Italian ryegrass; assay: Test Example 4: herbicidal effect by soil treatment (Table 19, symbol K); assay type: in vivo, Italian ryegrass (Lolium multiflorum); settings: amount of applied herbicide 320 g/ha
In short: as §3

[9] = system: velvetleaf; assay: Test Example 4: herbicidal effect by soil treatment (Table 19, symbol M); assay type: in vivo, velvetleaf (Abutilon theophrasti); settings: amount of applied herbicide 320 g/ha
In short: as §3

[10] = system: redroot pigweed; assay: Test Example 4: herbicidal effect by soil treatment (Table 19, symbol N); assay type: in vivo, redroot pigweed (Amaranthus retroflexus); settings: amount of applied herbicide 320 g/ha
In short: as §3

[11] = system: lambsquarters; assay: Test Example 4: herbicidal effect by soil treatment (Table 19, symbol O); assay type: in vivo, lambsquarters (Chenopodium album); settings: amount of applied herbicide 320 g/ha
In short: as §3

[12] = system: persian speedwell; assay: Test Example 4: herbicidal effect by soil treatment (Table 19, symbol R); assay type: in vivo, Persian speedwell (Veronica persica); settings: amount of applied herbicide 320 g/ha
In short: as §3

[13] = system: southern crabgrass; assay: Test Example 5: herbicidal effect by foliage application, plastic box (Table 20, symbol F); assay type: in vivo, southern crabgrass (Digitaria ciliaris); settings: 320 g/ha; for herbicidal effect on F: southern crabgrass (evaluation grade 0-5): foliage application after 14-day growth, evaluated three weeks after application
In short: (§4)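 Sow seeds spot-wise in sterilized diluvial soil; cover with ~1.5 cm soil. Grow 14 days in greenhouse, 25° C. to 30° C. Spray foliage with emulsion diluted to predetermined amount. Rate effect after 3 weeks.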

[14] = system: green foxtail; assay: Test Example 5: herbicidal effect by foliage application, plastic box (Table 20, symbol G); assay type: in vivo, green foxtail (Setaria viridis); settings: 320 g/ha; for herbicidal effect on G: green foxtail (evaluation grade 0-5): foliage application after 14-day growth, evaluated three weeks after application
In short: as §4

[15] = system: barnyard grass; assay: Test Example 5: herbicidal effect by foliage application, plastic box (Table 20, symbol H); assay type: in vivo, barnyard grass (Echinochloa crus-galli); settings: 320 g/ha; for herbicidal effect on H: barnyard grass (evaluation grade 0-5): foliage application after 14-day growth, evaluated three weeks after application
In short: as §4

[16] = system: wild oat; assay: Test Example 5: herbicidal effect by foliage application, plastic box (Table 20, symbol I); assay type: in vivo, wild oat (Avena fatua); settings: 320 g/ha; for herbicidal effect on I: wild oat (evaluation grade 0-5): foliage application after 14-day growth, evaluated three weeks after application
In short: as §4

[17] = system: blackgrass; assay: Test Example 5: herbicidal effect by foliage application, plastic box (Table 20, symbol J); assay type: in vivo, blackgrass (Alopecurus myosuroides); settings: 320 g/ha; for herbicidal effect on J: blackgrass (evaluation grade 0-5): foliage application after 14-day growth, evaluated three weeks after application
In short: as §4

[18] = system: Italian ryegrass; assay: Test Example 5: herbicidal effect by foliage application, plastic box (Table 20, symbol K); assay type: in vivo, Italian ryegrass (Lolium multiflorum); settings: 320 g/ha; for herbicidal effect on K: Italian ryegrass (evaluation grade 0-5): foliage application after 14-day growth, evaluated three weeks after application
In short: as §4

[19] = system: windgrass; assay: Test Example 5: herbicidal effect by foliage application, plastic box (Table 20, symbol L); assay type: in vivo, windgrass (Apera spica-venti); settings: 320 g/ha; for herbicidal effect on L: windgrass (evaluation grade 0-5): foliage application after 14-day growth, evaluated three weeks after application
In short: as §4

[20] = system: velvetleaf; assay: Test Example 5: herbicidal effect by foliage application, plastic box (Table 20, symbol M); assay type: in vivo, velvetleaf (Abutilon theophrasti); settings: 320 g/ha; for herbicidal effect on M: velvetleaf (evaluation grade 0-5): foliage application after 14-day growth, evaluated three weeks after application
In short: as §4

[21] = system: chickweed; assay: Test Example 5: herbicidal effect by foliage application, plastic box (Table 20, symbol P); assay type: in vivo, common chickweed (Stellaria media); settings: 320 g/ha; for herbicidal effect on P: chickweed (evaluation grade 0-5): foliage application after 14-day growth, evaluated three weeks after application
In short: as §4

[22] = foliage application, three weeks after application

| SMILES | Herbicidal effect, A: late watergrass [1] | Herbicidal effect, B: Japanese bulrush [2] | herbicidal effect rating, B: Japanese bulrush [3] | herbicidal effect rating, C: oval-leafed pondweed [4] | Herbicidal effect by soil treatment, G: green foxtail [5] | Herbicidal effect by soil treatment, I: wild oat [6] | Herbicidal effect by soil treatment, J: blackgrass [7] | Herbicidal effect by soil treatment, K: Italian ryegrass [8] | Herbicidal effect by soil treatment, M: velvetleaf [9] | Herbicidal effect by soil treatment, N: redroot pigweed [10] | Herbicidal effect by soil treatment, O: lambsquarters [11] | Herbicidal effect by soil treatment, R: persian speedwell [12] | herbicidal effect on F: southern crabgrass (evaluation grade 0-5) [13] | herbicidal effect on G: green foxtail (evaluation grade 0-5) [14] | herbicidal effect on H: barnyard grass (evaluation grade 0-5) [15] | herbicidal effect on I: wild oat (evaluation grade 0-5) [16] | herbicidal effect on J: blackgrass (evaluation grade 0-5) [17] | herbicidal effect on K: Italian ryegrass (evaluation grade 0-5) [18] | herbicidal effect on L: windgrass (evaluation grade 0-5) [19] | herbicidal effect on M: velvetleaf (evaluation grade 0-5) [20] | also measured |
| --- | --- | --- | --- | --- | --- | --- | --- | --- | --- | --- | --- | --- | --- | --- | --- | --- | --- | --- | --- | --- | --- |
| CCCC(=O)Oc1c(C)nn(C)c(=O)c1-c1c(-c2ccc(F)cc2OCC)sc2cc(C)ccc12 [3-058] | 5 (Herbicidal rate of 90% or more (almost completely withered)) | 5 (Herbicidal rate of 90% or more (almost completely withered)) | 5 (Herbicidal rate of 90% or more (almost completely withered)) | 4 (Herbicidal rate of 70% or more and less than 90%) | – | – | – | – | – | – | – | – | – | – | – | – | – | – | – | – | G: green foxtail, herbicidal effect grade [5]: 2 (Herbicidal rate of 20% or more and less than 40%); I: wild oat, herbicidal effect grade [6]: 0 (Herbicidal rate of 5% or less (almost no effect)); J: blackgrass, herbicidal effect grade [7]: 3 (Herbicidal rate of 40% or more and less than 70%); K: Italian ryegrass, herbicidal effect grade [8]: 0 (Herbicidal rate of 5% or less (almost no effect)); M: velvetleaf, herbicidal effect grade [9]: 5 (Herbicidal rate of 90% or more (almost completely withered)); N: redroot pigweed, herbicidal effect grade [10]: 5 (Herbicidal rate of 90% or more (almost completely withered)); O: lambsquarters, herbicidal effect grade [11]: 5 (Herbicidal rate of 90% or more (almost completely withered)); R: persian speedwell, herbicidal effect grade [12]: 4 (Herbicidal rate of 70% or more and less than 90%); F: southern crabgrass, herbicidal effect grade [13, 22]: 5 (Herbicidal rate of 90% or more (almost completely withered)); G: green foxtail, herbicidal effect grade [14, 22]: 5 (Herbicidal rate of 90% or more (almost completely withered)); H: barnyard grass, herbicidal effect grade [15, 22]: 5 (Herbicidal rate of 90% or more (almost completely withered)); I: wild oat, herbicidal effect grade [16, 22]: 5 (Herbicidal rate of 90% or more (almost completely withered)); J: blackgrass, herbicidal effect grade [17, 22]: 5 (Herbicidal rate of 90% or more (almost completely withered)); K: Italian ryegrass, herbicidal effect grade [18, 22]: 5 (Herbicidal rate of 90% or more (almost completely withered)); L: windgrass, herbicidal effect grade [19, 22]: 5 (Herbicidal rate of 90% or more (almost completely withered)); M: velvetleaf, herbicidal effect grade [20, 22]: 5 (Herbicidal rate of 90% or more (almost completely withered)); P: chickweed, herbicidal effect grade [21, 22]: 5 (Herbicidal rate of 90% or more (almost completely withered)) |
| CCCC(=O)Oc1c(C)nn(C)c(=O)c1-c1c(-c2ccccc2OCC)sc2c(Cl)cccc12 [4-026] | 5 (Herbicidal rate of 90% or more (almost completely withered)) | 3 (Herbicidal rate of 40% or more and less than 70%) | 3 (Herbicidal rate of 40% or more and less than 70%) | 2 (Herbicidal rate of 20% or more and less than 40%) | 3 (Herbicidal rate of 40% or more and less than 70%) | 0 (Herbicidal rate of 5% or less (almost no effect)) | 0 (Herbicidal rate of 5% or less (almost no effect)) | 0 (Herbicidal rate of 5% or less (almost no effect)) | 0 (Herbicidal rate of 5% or less (almost no effect)) | 2 (Herbicidal rate of 20% or more and less than 40%) | 0 (Herbicidal rate of 5% or less (almost no effect)) | 2 (Herbicidal rate of 20% or more and less than 40%) | 3 (Herbicidal rate of 40% or more and less than 70%) | 5 (Herbicidal rate of 90% or more (almost completely withered)) | 5 (Herbicidal rate of 90% or more (almost completely withered)) | 0 (Herbicidal rate of 5% or less (almost no effect)) | 3 (Herbicidal rate of 40% or more and less than 70%) | 1 (Herbicidal rate of 5% or more and less than 20%) | 5 (Herbicidal rate of 90% or more (almost completely withered)) | 5 (Herbicidal rate of 90% or more (almost completely withered)) | herbicidal effect on P: chickweed (evaluation grade 0-5) [21]: 5 (Herbicidal rate of 90% or more (almost completely withered)) |
| CCCC(=O)Oc1c(C)nn(C)c(=O)c1-c1c(-c2ccc(C(F)(F)F)cc2)sc2c(F)cccc12 [4-045] | 4 (Herbicidal rate of 70% or more and less than 90%) | 2 (Herbicidal rate of 20% or more and less than 40%) | 0 (Herbicidal rate of 5% or less (almost no effect)) | 0 (Herbicidal rate of 5% or less (almost no effect)) | 0 (Herbicidal rate of 5% or less (almost no effect)) | 0 (Herbicidal rate of 5% or less (almost no effect)) | 0 (Herbicidal rate of 5% or less (almost no effect)) | 0 (Herbicidal rate of 5% or less (almost no effect)) | 0 (Herbicidal rate of 5% or less (almost no effect)) | 4 (Herbicidal rate of 70% or more and less than 90%) | 0 (Herbicidal rate of 5% or less (almost no effect)) | 3 (Herbicidal rate of 40% or more and less than 70%) | 0 (Herbicidal rate of 5% or less (almost no effect)) | 0 (Herbicidal rate of 5% or less (almost no effect)) | 2 (Herbicidal rate of 20% or more and less than 40%) | 0 (Herbicidal rate of 5% or less (almost no effect)) | 0 (Herbicidal rate of 5% or less (almost no effect)) | 5 (Herbicidal rate of 90% or more (almost completely withered)) | 4 (Herbicidal rate of 70% or more and less than 90%) | 4 (Herbicidal rate of 70% or more and less than 90%) | herbicidal effect on P: chickweed (evaluation grade 0-5) [21]: 5 (Herbicidal rate of 90% or more (almost completely withered)) |
